Reference: patent US20240366644A1, “ANTI-INFLAMMATORY APPLICATION OF GINSENOSIDE RD” (priority 2022, published 2024)

Legend:
[1] = tested on: influenza virus-infected mice; assay: TNF-α and IL-6 in serum and lung tissues of influenza virus-infected mice; format: in vivo, ICR mice
Protocol: A lump of absorbent cotton was put into a beaker of 200-300 mL, and then poured with an appropriate amount of ether (till the absorbent cotton was wetted). The beaker filled with the absorbent cotton was inverted, and added with the mice for anesthesia. When the mice were extremely excited and then obviously weak, that is, the anesthesia depth was moderate, the mice were taken out. The ether-anesthetized mice were placed on their backs, with the mouse head facing upward, and then were subjected to intranasal infection. A diluted influenza virus was added to nostrils at 0.03 mL/nostril. A blank group was administrated with normal saline, instead of a virus suspension.
The mice were randomly divided into four groups, that is, drug groups (10 mg/kg, 5 mg/kg), a model group, and a blank group were administrated by routine gavage on the day before infection, once a day; and the blank group and the model group were perfused with the equal volume of normal saline.
On the Day 1, Day 3, Day 5 and Day 7 after influenza virus infection, venous blood was collected from the plexus ophthalmicus, and blood from mice in each group was preserved, subjected to serum separation, and stored in a refrigerator for later use.
According to the instructions of a test kit, various detection and analysis were carried out, and TNF-α and IL-6 concentrations were calculated based on the standard detection and standard curve plotting.
On the Day 1, Day 3, Day 5 and Day 7 after influenza virus infection, after the mice were killed by bleeding from the eyeballs, the whole lungs were picked, homogenized in a homogenizer according to a ratio of lung weight (g):normal saline (mL)=1:9, and centrifuged; and a supernatant was stored in the refrigerator for later use. According to the instructions of a test kit, various detection and analysis were carried out, and TNF-α and IL-6 concentrations were calculated based on the standard detection and standard curve plotting.

[2] = tested on: mice with chronic bronchial asthma; assay: Serum IL-4 and INF-γ in OVA-sensitised mice with chronic bronchial asthma; format: in vivo, BALB/c mice; conditions: for IL-4 in serum / INF-γ in serum: seven days, 24 h after the last excitation
Protocol: After adaptive feeding (20-25° C., a humidity of 50-60%) for one week, the mice were randomly divided into a blank group, a model group, a ginsenoside Rd high-dose group, and a ginsenoside Rd low-dose group, with ten […] in each group.
Except for the blank group, the mice in the other groups were intraperitoneally injected with 0.2 ml of sensitization solution (containing 50 μg of OVA) on the Day 1, Day 8 and Day 15, respectively. Starting on Day 22, the mice in each group were placed in a nebulizer and inhaled with 2% OVA for exciting asthma. This inhalation was performed once a day, 45 min each time, for seven consecutive days.
Administration by gavage was performed 30 min before each asthma stimulation, once a day for seven consecutive days. The blank group and the model group were administrated with normal saline by gavage, the high-dose group was administrated with 10 mg/kg ginsenoside Rd by gavage, and the low-dose group was administrated with 5 mg/kg ginsenoside Rd by gavage.
24 h after the last excitation, the mice were sampled, blood was collected from the eyeballs and separated to obtain serum, and IL-4 and INF-γ in the serum were detected.

[3] = tested on: mice infected with COVID-19 Delta virus; assay: Lung histopathology of mice infected with COVID-19 Delta virus; format: in vivo, hACE2 transgenic C57BL/6 mice; conditions: for Interstitial pneumonia Mild / Interstitial pneumonia Moderate / Interstitial pneumonia Severe / Pulmonary hemorrhage Mild / Pulmonary hemorrhage Moderate / Pulmonary hemorrhage Severe: number of mice with this degree (four per group), five days
[4] = high-dose 10 mg/kg gavage once a day, 1 d after infection
[5] = high-dose 10 mg/kg gavage once a day, 3 d after infection
[6] = high-dose 10 mg/kg gavage once a day, 5 d after infection
[7] = high-dose 10 mg/kg gavage once a day, 7 d after infection
[8] = low-dose 5 mg/kg gavage once a day, 1 d after infection
[9] = low-dose 5 mg/kg gavage once a day, 3 d after infection
[10] = low-dose 5 mg/kg gavage once a day, 5 d after infection
[11] = low-dose 5 mg/kg gavage once a day, 7 d after infection
[12] = high-dose 10 mg/kg gavage once a day
[13] = low-dose 5 mg/kg gavage once a day
[14] = high-dose 20 mg/kg gavage once a day
[15] = low-dose 10 mg/kg gavage once a day

## CC(C)=CCC[C@](C)(O[C@@H]1O[C@H](CO)[C@@H](O)[C@H](O)[C@H]1O)[C@H]1CC[C@]2(C)[C@@H]1[C@H](O)C[C@@H]1[C@@]3(C)CC[C@H](O[C@@H]4O[C@H](CO)[C@@H](O)[C@H](O)[C@H]4O[C@@H]4O[C@H](CO)[C@@H](O)[C@H](O)[C@H]4O)C(C)(C)[C@@H]3CC[C@]12C [Ginsenoside Rd, ginsenoside Rd]
[1]; [4]
  Lung tissue IL-6: 43.56 ± 3.46 pg/mL
  Lung tissue TNF-α: 31.34 ± 3.25 pg/mL
  Serum IL-6: 46.21 ± 3.03 pg/mL
  Serum TNF-α: 26.53 ± 1.02 pg/mL
[1]; [5]
  Lung tissue IL-6: 43.47 ± 2.58 pg/mL
  Lung tissue TNF-α: 32.09 ± 2.51 pg/mL
  Serum IL-6: 46.52 ± 2.23 pg/mL
  Serum TNF-α: 26.83 ± 2.04 pg/mL
[1]; [6]
  Lung tissue IL-6: 42.39 ± 3.41 pg/mL
  Lung tissue TNF-α: 31.97 ± 2.94 pg/mL
  Serum IL-6: 45.79 ± 3.19 pg/mL
  Serum TNF-α: 26.99 ± 1.55 pg/mL
[1]; [7]
  Lung tissue IL-6: 42.21 ± 2.64 pg/mL
  Lung tissue TNF-α: 30.08 ± 3.28 pg/mL
  Serum IL-6: 45.23 ± 2.95 pg/mL
  Serum TNF-α: 25.88 ± 1.66 pg/mL
[1]; [8]
  Lung tissue IL-6: 46.86 ± 2.76 pg/mL
  Lung tissue TNF-α: 32.98 ± 2.27 pg/mL
  Serum IL-6: 47.15 ± 2.31 pg/mL
  Serum TNF-α: 28.32 ± 1.21 pg/mL
[1]; [9]
  Lung tissue IL-6: 46.29 ± 2.05 pg/mL
  Lung tissue TNF-α: 34.72 ± 2.44 pg/mL
  Serum IL-6: 47.22 ± 2.57 pg/mL
  Serum TNF-α: 28.19 ± 1.27 pg/mL
[1]; [10]
  Lung tissue IL-6: 46.21 ± 2.73 pg/mL
  Lung tissue TNF-α: 32.14 ± 2.16 pg/mL
  Serum IL-6: 46.62 ± 2.01 pg/mL
  Serum TNF-α: 28.07 ± 1.43 pg/mL
[1]; [11]
  Lung tissue IL-6: 46.52 ± 3.02 pg/mL
  Lung tissue TNF-α: 30.86 ± 3.05 pg/mL
  Serum IL-6: 46.59 ± 3.46 pg/mL
  Serum TNF-α: 27.94 ± 1.16 pg/mL
[1]; mouse, in vivo
  inflammatory factors TNF-α and IL-6 after influenza virus infection: could down-regulate the related inflammatory factors
[2]; [12]
  IL-4 in serum: 36.11 ± 10.98 pg/mL
  INF-γ in serum: 102.48 ± 7.81
[2]; [13]
  IL-4 in serum: 10.72 ± 16.74 pg/mL
  INF-γ in serum: 95.34 ± 13.59
[2]; mouse, in vivo
  expression of IL-4: reduce the expression of IL-4
  expression of INF-γ: increase the expression of INF-γ
[3]; 10 mg/kg and 20 mg/kg, compared with virus group
  lung lesions caused by COVID-19 Delta virus: good improvement effects on lung lesions
[3]; high-dose group 20 mg/kg
  pathological improvement of pulmonary hemorrhage and interstitial pneumonia compared with Dexamethasone: better than Dexamethasone
[3]; [14]
  Interstitial pneumonia Mild: 4
  Interstitial pneumonia Moderate: 0
  Interstitial pneumonia Severe: 0
  Pulmonary hemorrhage Mild: 4
  Pulmonary hemorrhage Moderate: 0
  Pulmonary hemorrhage Severe: 0
[3]; [15]
  Interstitial pneumonia Mild: 2
  Interstitial pneumonia Moderate: 2
  Interstitial pneumonia Severe: 0
  Pulmonary hemorrhage Mild: 2
  Pulmonary hemorrhage Moderate: 2
  Pulmonary hemorrhage Severe: 0
